Experimental data from patent US20190169134A1, “NOVEL CLASS OF QUINOLONE HETEROCYCLIC AROMATIC MOLECULES FOR CANCER TREATMENT” (RenoTarget Therapeutics, Inc., priority 2016, published 2019).

Experiments:
Assay in all cases: KinaseSeeker competition binding assay
FLT2 = molecular target: T1, FLT2 (Homo sapiens, UniProt P11362)
T1 construct: made in house; host or cells: cell-free system (rabbit reticulocyte lysate)
Procedure: (§1) Compound Reno647 was profiled against the following panel of kinases at 2 μM using the KinaseSeeker™ assay: ABL1, AKT1, AKT2, AKT3, ALK, AURKA, AXL, BRAF, BTK, CDK2, CDK5, CDK7, CDK8, CSF1R, DDR1, EGFR del L747-P753 InsS, EGFR (L861Q), EGFR (G719S), EGFR, EGFR (L858R), EPHA2, EPHB2, FGFR3, FLT1/VEGFR1, FLT2/FGFR1, FLT3, FLT4/VEGFR3, GSK-3a, HER2, IGF1R, INSR, KIT, LIMK1, MET, MLK2/MAP3K10, RPS6KA5/MSK1, MUSK, p38a/MAPK12, PDGFRA, PDGFRB, PDK1, RET, RIPK2, RPS6KA1/RSK1, SRC, TEC, TESK1, TRKB, VEGFR2, and YES 1.
(§2) KinaseSeeker is a homogeneous competition binding assay where the displacement of an active site dependent probe by an inhibitor is measured by a change in luminescence signal (see FIG. 7). Luminescence readout translates into a highly sensitive and robust assay with low background and minimal interference from test compounds.
(§3) (Jester, Cox et al. 2010; Jester, Gaj et al. 2012): 10 mM stock of compound Reno647 was diluted in DMSO to a concentration of 50 μM. Prior to initiating a profiling campaign, the compound was evaluated for false positive against split-luciferase. The compound was then screened in duplicate against each of the kinases. For kinase assays, each Cfluc-Kinase was translated along with Fos-Nfluc using a cell-free system (rabbit reticulocyte lysate) at 30° C. for 90 min. A 24 μL aliquot of this lysate containing either 1 μL of DMSO (for no-inhibitor control) or compound solution in DMSO (2 LM final concentration) was incubated for 30 minutes at room temperature followed by 1 hour in the presence of a kinase specific probe. A 80 μL of luciferin assay reagent was added to each solution and luminescence was immediately measured on a luminometer.
(§4) The % Inhibition and % Activity Remaining were calculated using the following equations:
(§5) % inhibition=(ALUcontrol−ALUsample)×100
(§6) % activity=100−% inhibition.

AKT2 = molecular target: T2, AKT2 (Homo sapiens, UniProt P31751)
T2 construct: made in house; host or cells: cell-free system (rabbit reticulocyte lysate)
Procedure: as §1, §2, §3, §4, §5, §6

CDK8 = molecular target: T3, CDK8 (Homo sapiens, UniProt P49336)
T3 construct: made in house; host or cells: cell-free system (rabbit reticulocyte lysate)
Procedure: as §1, §2, §3, §4, §5, §6

AXL = molecular target: T4, AXL (Homo sapiens, UniProt P30530)
T4 construct: made in house; host or cells: cell-free system (rabbit reticulocyte lysate)
Procedure: as §1, §2, §3, §4, §5, §6

CSF1R = molecular target: T5, CSF1R (Homo sapiens, UniProt P07333)
T5 construct: made in house; host or cells: cell-free system (rabbit reticulocyte lysate)
Procedure: as §1, §2, §3, §4, §5, §6

TESK1 = molecular target: T6, TESK1 (Homo sapiens, UniProt Q15569)
T6 construct: made in house; host or cells: cell-free, rabbit reticulocyte lysate
Procedure: as §1, §2, §3, §4, §5, §6

MLK2 = molecular target: T7, MLK2 (Homo sapiens, UniProt Q02779)
T7 construct: made in house; host or cells: cell-free, rabbit reticulocyte lysate
Procedure: as §1, §2, §3, §4, §5, §6

EPHB2 = molecular target: T8, EPHB2 (Homo sapiens, UniProt P29323)
T8 construct: made in house; host or cells: cell-free system (rabbit reticulocyte lysate)
Procedure: as §1, §2, §3, §4, §5, §6

MUSK = molecular target: T9, MUSK (Homo sapiens, UniProt O15146)
T9 construct: made in house; host or cells: cell-free, rabbit reticulocyte lysate
Procedure: as §1, §2, §3, §4, §5, §6

VEGFR2 = molecular target: T10, VEGFR2 (Homo sapiens, UniProt P35968)
T10 construct: made in house; host or cells: cell-free, rabbit reticulocyte lysate
Procedure: as §1, §2, §3, §4, §5, §6

PDGFRB = molecular target: T11, PDGFRB (Homo sapiens, UniProt P09619)
T11 construct: made in house; host or cells: cell-free, rabbit reticulocyte lysate
Procedure: as §1, §2, §3, §4, §5, §6

MET = molecular target: T12, MET (Homo sapiens, UniProt P08581)
T12 construct: made in house; host or cells: cell-free, rabbit reticulocyte lysate
Procedure: as §1, §2, §3, §4, §5, §6

KIT-KD = molecular target: T13, KIT-KD (Homo sapiens, UniProt P10721)
T13 construct: KIT-KD; made in house; host or cells: cell-free, rabbit reticulocyte lysate
Procedure: as §1, §2, §3, §4, §5, §6

FLT4 = molecular target: T14, FLT4 (Homo sapiens, UniProt P35916)
T14 construct: made in house; host or cells: cell-free, rabbit reticulocyte lysate
Procedure: as §1, §2, §3, §4, §5, §6

INSR = molecular target: T15, INSR (Homo sapiens, UniProt P06213)
T15 construct: made in house; host or cells: cell-free, rabbit reticulocyte lysate
Procedure: as §1, §2, §3, §4, §5, §6

CDK7 = molecular target: T16, CDK7 (Homo sapiens, UniProt P50613)
T16 construct: made in house; host or cells: cell-free system (rabbit reticulocyte lysate)
Procedure: as §1, §2, §3, §4, §5, §6

EPHA2 = molecular target: T17, EPHA2 (Homo sapiens, UniProt P29317)
T17 construct: made in house; host or cells: cell-free system (rabbit reticulocyte lysate)
Procedure: as §1, §2, §3, §4, §5, §6

FLT3 = molecular target: T18, FLT3 (Homo sapiens, UniProt P36888)
T18 construct: made in house; host or cells: cell-free, rabbit reticulocyte lysate
Procedure: as §1, §2, §3, §4, §5, §6

FLT1 = molecular target: T19, FLT1 (Homo sapiens, UniProt P17948)
T19 construct: made in house; host or cells: cell-free system (rabbit reticulocyte lysate)
Procedure: as §1, §2, §3, §4, §5, §6

RET = molecular target: T20, RET (Homo sapiens, UniProt P07949)
T20 construct: made in house; host or cells: cell-free, rabbit reticulocyte lysate
Procedure: as §1, §2, §3, §4, §5, §6

HER2 = molecular target: T21, HER2 (Homo sapiens, UniProt P04626)
T21 construct: made in house; host or cells: cell-free, rabbit reticulocyte lysate
Procedure: as §1, §2, §3, §4, §5, §6

ALK = molecular target: T22, ALK (Homo sapiens, UniProt Q9UM73)
T22 construct: made in house; host or cells: cell-free system (rabbit reticulocyte lysate)
Procedure: as §1, §2, §3, §4, §5, §6

DDR1 = molecular target: T23, DDR1 (Homo sapiens, UniProt Q08345)
T23 construct: made in house; host or cells: cell-free system (rabbit reticulocyte lysate)
Procedure: as §1, §2, §3, §4, §5, §6

AKT3 = molecular target: T24, AKT3 (Homo sapiens, UniProt Q9Y243)
T24 construct: made in house; host or cells: cell-free system (rabbit reticulocyte lysate)
Procedure: as §1, §2, §3, §4, §5, §6

p38a = conditions: 2 μM
Procedure: as §1, §2, §3, §4, §5, §6

MSK1 = molecular target: T25, MSK1 (Homo sapiens, UniProt O75582)
T25 construct: made in house; host or cells: cell-free, rabbit reticulocyte lysate
Procedure: as §1, §2, §3, §4, §5, §6

SRC = molecular target: T26, SRC (Homo sapiens, UniProt P12931)
T26 construct: made in house; host or cells: cell-free, rabbit reticulocyte lysate
Procedure: as §1, §2, §3, §4, §5, §6

IGF1R = molecular target: T27, IGF1R (Homo sapiens, UniProt P08069)
T27 construct: made in house; host or cells: cell-free, rabbit reticulocyte lysate
Procedure: as §1, §2, §3, §4, §5, §6

LIMK1 = molecular target: T28, LIMK1 (Homo sapiens, UniProt P53667)
T28 construct: made in house; host or cells: cell-free, rabbit reticulocyte lysate
Procedure: as §1, §2, §3, §4, §5, §6

TRKB = molecular target: T29, TRKB (Homo sapiens, UniProt Q16620)
T29 construct: made in house; host or cells: cell-free, rabbit reticulocyte lysate
Procedure: as §1, §2, §3, §4, §5, §6

T19 sequence (P17948 27-1338): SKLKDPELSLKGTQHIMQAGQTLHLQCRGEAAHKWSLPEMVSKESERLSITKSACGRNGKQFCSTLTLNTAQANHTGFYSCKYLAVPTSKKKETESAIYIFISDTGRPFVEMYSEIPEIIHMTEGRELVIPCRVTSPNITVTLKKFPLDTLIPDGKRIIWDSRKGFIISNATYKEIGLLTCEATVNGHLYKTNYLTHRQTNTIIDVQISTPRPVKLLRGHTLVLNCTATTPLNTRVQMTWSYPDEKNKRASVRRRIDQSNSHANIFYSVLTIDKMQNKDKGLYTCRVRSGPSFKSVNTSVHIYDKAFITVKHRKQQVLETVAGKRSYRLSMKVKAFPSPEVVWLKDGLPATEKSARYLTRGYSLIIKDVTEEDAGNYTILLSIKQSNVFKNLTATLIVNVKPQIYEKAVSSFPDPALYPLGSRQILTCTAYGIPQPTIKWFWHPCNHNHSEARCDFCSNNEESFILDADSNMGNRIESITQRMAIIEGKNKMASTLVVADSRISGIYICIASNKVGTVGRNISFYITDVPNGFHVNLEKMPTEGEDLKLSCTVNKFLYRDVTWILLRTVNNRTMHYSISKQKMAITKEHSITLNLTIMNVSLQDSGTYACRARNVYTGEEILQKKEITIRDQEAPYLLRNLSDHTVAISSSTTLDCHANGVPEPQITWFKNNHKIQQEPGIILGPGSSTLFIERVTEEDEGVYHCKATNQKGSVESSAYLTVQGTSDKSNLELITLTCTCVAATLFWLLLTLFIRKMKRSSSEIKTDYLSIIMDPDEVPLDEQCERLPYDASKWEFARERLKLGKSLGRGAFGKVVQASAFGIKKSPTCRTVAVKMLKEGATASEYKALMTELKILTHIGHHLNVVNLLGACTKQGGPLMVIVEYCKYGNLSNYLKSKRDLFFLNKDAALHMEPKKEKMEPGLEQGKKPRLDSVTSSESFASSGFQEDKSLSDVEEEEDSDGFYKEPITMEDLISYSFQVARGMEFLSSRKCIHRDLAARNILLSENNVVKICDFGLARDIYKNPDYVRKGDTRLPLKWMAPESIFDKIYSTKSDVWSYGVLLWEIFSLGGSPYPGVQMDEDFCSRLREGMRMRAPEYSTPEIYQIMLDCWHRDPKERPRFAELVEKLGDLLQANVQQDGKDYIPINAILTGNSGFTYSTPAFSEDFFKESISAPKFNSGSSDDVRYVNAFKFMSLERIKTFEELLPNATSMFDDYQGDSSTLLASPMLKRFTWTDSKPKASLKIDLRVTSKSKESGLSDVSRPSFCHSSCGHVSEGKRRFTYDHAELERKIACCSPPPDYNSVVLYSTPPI
T20 sequence (P07949 29-1114): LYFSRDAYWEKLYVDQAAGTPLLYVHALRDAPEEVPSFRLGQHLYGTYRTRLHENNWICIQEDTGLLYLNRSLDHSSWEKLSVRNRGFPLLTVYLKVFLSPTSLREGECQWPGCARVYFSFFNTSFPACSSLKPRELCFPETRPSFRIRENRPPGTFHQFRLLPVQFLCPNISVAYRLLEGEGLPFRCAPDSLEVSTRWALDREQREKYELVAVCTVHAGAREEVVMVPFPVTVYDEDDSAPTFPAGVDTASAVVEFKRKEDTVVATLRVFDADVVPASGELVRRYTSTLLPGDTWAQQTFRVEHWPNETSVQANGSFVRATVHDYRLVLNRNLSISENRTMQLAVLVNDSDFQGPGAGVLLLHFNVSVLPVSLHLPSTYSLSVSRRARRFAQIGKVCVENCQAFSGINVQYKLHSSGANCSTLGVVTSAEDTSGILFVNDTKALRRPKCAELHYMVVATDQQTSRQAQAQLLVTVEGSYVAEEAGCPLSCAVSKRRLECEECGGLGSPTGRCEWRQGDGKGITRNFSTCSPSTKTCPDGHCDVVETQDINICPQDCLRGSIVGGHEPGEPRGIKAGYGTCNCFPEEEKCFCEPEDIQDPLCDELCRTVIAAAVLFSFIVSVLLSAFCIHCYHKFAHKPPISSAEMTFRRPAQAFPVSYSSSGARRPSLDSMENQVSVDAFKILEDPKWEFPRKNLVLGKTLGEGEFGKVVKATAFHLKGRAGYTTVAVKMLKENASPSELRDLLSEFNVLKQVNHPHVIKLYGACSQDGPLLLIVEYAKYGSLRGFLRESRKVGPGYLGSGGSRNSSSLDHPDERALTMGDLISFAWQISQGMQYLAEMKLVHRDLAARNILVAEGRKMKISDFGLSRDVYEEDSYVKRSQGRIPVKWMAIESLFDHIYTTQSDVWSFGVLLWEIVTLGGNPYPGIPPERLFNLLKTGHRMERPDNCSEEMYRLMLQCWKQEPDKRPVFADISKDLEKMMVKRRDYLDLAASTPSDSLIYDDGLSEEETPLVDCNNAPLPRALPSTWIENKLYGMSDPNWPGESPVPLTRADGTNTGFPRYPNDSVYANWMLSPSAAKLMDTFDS
T26 sequence (P12931 whole entry): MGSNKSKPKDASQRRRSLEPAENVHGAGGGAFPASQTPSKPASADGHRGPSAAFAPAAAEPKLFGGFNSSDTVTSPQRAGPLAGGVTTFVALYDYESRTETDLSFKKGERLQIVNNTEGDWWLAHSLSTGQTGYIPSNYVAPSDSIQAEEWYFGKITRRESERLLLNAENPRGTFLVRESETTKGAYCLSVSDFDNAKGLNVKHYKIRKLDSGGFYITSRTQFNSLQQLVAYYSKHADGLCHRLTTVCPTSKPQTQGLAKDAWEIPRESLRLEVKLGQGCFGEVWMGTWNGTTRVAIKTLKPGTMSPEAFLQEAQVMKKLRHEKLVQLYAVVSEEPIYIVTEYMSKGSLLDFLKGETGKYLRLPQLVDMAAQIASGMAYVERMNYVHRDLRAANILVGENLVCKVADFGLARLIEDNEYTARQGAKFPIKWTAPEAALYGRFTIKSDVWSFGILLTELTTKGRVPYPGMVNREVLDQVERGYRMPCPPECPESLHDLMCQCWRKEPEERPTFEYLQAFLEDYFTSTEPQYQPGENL
T8 sequence (P29323 19-1055): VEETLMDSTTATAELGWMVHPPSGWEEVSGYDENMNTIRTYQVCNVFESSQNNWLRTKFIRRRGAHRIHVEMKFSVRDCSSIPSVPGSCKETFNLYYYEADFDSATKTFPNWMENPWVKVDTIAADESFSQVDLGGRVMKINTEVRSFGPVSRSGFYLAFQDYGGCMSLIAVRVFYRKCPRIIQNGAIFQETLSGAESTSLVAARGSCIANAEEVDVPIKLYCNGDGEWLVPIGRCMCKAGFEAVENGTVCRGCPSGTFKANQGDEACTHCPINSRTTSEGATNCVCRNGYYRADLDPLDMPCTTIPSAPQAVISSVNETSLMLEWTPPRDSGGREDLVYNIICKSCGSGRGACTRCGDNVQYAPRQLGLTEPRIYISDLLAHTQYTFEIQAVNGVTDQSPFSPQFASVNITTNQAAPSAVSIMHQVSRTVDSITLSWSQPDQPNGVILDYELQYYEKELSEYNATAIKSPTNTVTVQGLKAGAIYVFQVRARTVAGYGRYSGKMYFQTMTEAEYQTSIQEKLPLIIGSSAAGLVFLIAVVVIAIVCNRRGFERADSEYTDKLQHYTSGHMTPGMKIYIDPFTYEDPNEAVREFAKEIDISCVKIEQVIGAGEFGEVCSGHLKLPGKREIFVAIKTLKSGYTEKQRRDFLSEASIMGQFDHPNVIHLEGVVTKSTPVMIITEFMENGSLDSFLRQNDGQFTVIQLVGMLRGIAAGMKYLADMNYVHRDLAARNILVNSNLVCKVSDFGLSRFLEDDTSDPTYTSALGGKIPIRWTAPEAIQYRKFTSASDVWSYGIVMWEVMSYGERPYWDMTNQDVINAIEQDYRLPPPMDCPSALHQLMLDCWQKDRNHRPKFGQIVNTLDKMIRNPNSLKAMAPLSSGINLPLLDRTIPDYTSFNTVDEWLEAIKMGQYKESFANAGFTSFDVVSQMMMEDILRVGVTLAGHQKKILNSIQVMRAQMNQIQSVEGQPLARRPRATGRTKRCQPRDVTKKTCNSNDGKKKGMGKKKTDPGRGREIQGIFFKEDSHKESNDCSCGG
T2 sequence (P31751 whole entry): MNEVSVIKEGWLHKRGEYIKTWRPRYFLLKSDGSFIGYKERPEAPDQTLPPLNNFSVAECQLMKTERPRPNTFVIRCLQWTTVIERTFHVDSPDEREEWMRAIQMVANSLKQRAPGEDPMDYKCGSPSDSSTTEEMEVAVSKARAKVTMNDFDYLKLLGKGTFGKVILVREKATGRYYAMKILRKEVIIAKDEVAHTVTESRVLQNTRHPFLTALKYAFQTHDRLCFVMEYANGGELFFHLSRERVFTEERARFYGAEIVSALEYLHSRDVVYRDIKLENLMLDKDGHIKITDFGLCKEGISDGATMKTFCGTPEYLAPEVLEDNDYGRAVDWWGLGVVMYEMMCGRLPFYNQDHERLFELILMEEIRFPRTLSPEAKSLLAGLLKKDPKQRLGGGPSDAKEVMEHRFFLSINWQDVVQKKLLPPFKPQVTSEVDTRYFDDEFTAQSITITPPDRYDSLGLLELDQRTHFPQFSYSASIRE
T13 sequence (P10721 589-937 limits assumed): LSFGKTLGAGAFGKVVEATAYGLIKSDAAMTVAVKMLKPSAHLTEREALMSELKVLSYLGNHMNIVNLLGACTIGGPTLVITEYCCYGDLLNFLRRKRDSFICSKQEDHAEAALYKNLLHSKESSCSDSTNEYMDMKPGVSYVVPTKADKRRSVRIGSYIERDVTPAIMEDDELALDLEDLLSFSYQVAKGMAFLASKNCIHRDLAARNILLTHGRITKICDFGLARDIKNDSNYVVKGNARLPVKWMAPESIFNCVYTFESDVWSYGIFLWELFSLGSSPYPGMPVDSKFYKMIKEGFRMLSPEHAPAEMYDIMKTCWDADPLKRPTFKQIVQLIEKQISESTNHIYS

remaining binding at 2 µM (FLT2): 51.7%
remaining binding at 2 µM (AKT2): 100%
remaining binding at 2 µM (CDK8): 92.3%
remaining binding at 2 µM (AXL): 73.2%
remaining binding at 2 µM (CSF1R): 97.6%
remaining binding at 2 µM (TESK1): 100%
remaining binding at 2 µM (MLK2): 99.7%
remaining binding at 2 µM (EPHB2): 100%
remaining binding at 2 µM (MUSK): 91.8%
remaining binding at 2 µM (VEGFR2): 92.8%
remaining binding at 2 µM (PDGFRB): 76.6%
remaining binding at 2 µM (MET): 100%
remaining binding at 2 µM (KIT-KD): 90%
remaining binding at 2 µM (FLT4): 79.8%
remaining binding at 2 µM (INSR): 84.6%
remaining binding at 2 µM (CDK7): 95.5%
remaining binding at 2 µM (EPHA2): 100%
remaining binding at 2 µM (FLT3): 100%
remaining binding at 2 µM (FLT1): 80.5%
remaining binding at 2 µM (RET): 100%
remaining binding at 2 µM (HER2): 100%
remaining binding at 2 µM (ALK): 92.1%
remaining binding at 2 µM (DDR1): ~42%
remaining binding at 2 µM (AKT3): 100%
% Activity Remaining (p38a): 100.0%
remaining binding at 2 µM (MSK1): 100%
remaining binding at 2 µM (SRC): 84.9%
remaining binding at 2 µM (IGF1R): 95.5%
remaining binding at 2 µM (LIMK1): 100%
remaining binding at 2 µM (TRKB): 88.4%
SMILES: C#Cc1cccc(Nc2ncnc3cc(OCCOC)c(NC(=O)c4ccc(F)c([N+](=O)[O-])c4)cc23)c1 [Reno647, 4-Fluoro-N-[4-(3-ethynyl-phenylamino)-7-(2-methoxy-ethoxy)-quinazolin-6-yl]-3-nitro-benzamide]
